Reference: ChEMBL document CHEMBL3792311, “In vitro and in vivo activity of ML302F: a thioenolate inhibitor of VIM-subfamily metallo -lactamases” (Medchemcomm, 2016)
Calls of active or inactive are those of the source. The calls are words filed in the database; no cut-off is given here.

Experiments:
[1] = tested on: Pseudomonas aeruginosa; assay: Potentiation of meropenem-induced antibacterial activity against VIM2 carbapenemase producing multidrug-resistant Pseudomonas aeruginosa GR57 clinical isolate infected in Galleria mellonella larvae assessed as survival rate at 4.8 mg/kg measured at 96 hrs; format: functional; settings: GR57, 96 h
[2] = tested on: Klebsiella oxytoca; assay: Potentiation of meropenem-induced antibacterial activity against VIM4 carbapenemase producing multidrug-resistant Klebsiella oxytoca 95 clinical isolate assessed as MIC of meropenem at 1:8 meropenem:compound ratio by broth microtiter dilution method; format: functional
[3] = tested on: Pseudomonas aeruginosa; assay: Potentiation of meropenem-induced antibacterial activity against VIM2 carbapenemase producing multidrug-resistant Pseudomonas aeruginosa GR57 clinical isolate assessed as MIC of meropenem at 1:8 meropenem:compound ratio by broth microtiter dilution method; format: functional
[4] = tested on: Klebsiella oxytoca; assay: Potentiation of meropenem-induced antibacterial activity against VIM4 carbapenemase producing multidrug-resistant Klebsiella oxytoca 126 clinical isolate at 1:8 meropenem:compound ratio by checkerboard method; format: functional
[5] = tested on: Pseudomonas aeruginosa; assay: Potentiation of meropenem-induced antibacterial activity against VIM2 carbapenemase producing multidrug-resistant Pseudomonas aeruginosa 9 clinical isolate assessed as MIC of meropenem at 1:8 meropenem:compound ratio by broth microtiter dilution method; format: functional
[6] = tested on: Pseudomonas aeruginosa; assay: Antibacterial activity against VIM2 carbapenemase producing multidrug-resistant Pseudomonas aeruginosa GR58 clinical isolate up to 512 mg/L by broth microtiter dilution method; format: functional, organism-based
[7] = tested on: Escherichia coli; assay: Potentiation of meropenem-induced antibacterial activity against VIM4 carbapenemase producing multidrug-resistant Escherichia coli 98 clinical isolate assessed as MIC of meropenem at 1:8 meropenem:compound ratio by broth microtiter dilution method; format: functional
[8] = tested on: Pseudomonas aeruginosa; assay: Potentiation of meropenem-induced antibacterial activity against VIM2 carbapenemase producing multidrug-resistant Pseudomonas aeruginosa 30 clinical isolate at 1:8 meropenem:compound ratio by checkerboard method; format: functional
[9] = tested on: Klebsiella pneumoniae; assay: Potentiation of meropenem-induced antibacterial activity against VIM4 carbapenemase producing multidrug-resistant Klebsiella pneumoniae 120 clinical isolate at 1:8 meropenem:compound ratio by checkerboard method; format: functional
[10] = tested on: Pseudomonas aeruginosa; assay: Potentiation of meropenem-induced antibacterial activity against VIM2 carbapenemase producing multidrug-resistant Pseudomonas aeruginosa 6 clinical isolate at 1:8 meropenem:compound ratio by checkerboard method; format: functional
[11] = tested on: Pseudomonas aeruginosa; assay: Potentiation of meropenem-induced antibacterial activity against VIM2 carbapenemase producing multidrug-resistant Pseudomonas aeruginosa 9 clinical isolate at 1:8 meropenem:compound ratio by checkerboard method; format: functional
[12] = tested on: Pseudomonas aeruginosa; assay: Potentiation of meropenem-induced antibacterial activity against VIM2 carbapenemase producing multidrug-resistant Pseudomonas aeruginosa 14 clinical isolate at 1:8 meropenem:compound ratio by checkerboard method; format: functional
[13] = tested on: Klebsiella pneumoniae; assay: Potentiation of meropenem-induced antibacterial activity against VIM4 carbapenemase producing multidrug-resistant Klebsiella pneumoniae 196 clinical isolate assessed as MIC of meropenem at 1:8 meropenem:compound ratio by broth microtiter dilution method; format: functional
[14] = tested on: Klebsiella pneumoniae; assay: Potentiation of meropenem-induced antibacterial activity against VIM4 carbapenemase producing multidrug-resistant Klebsiella pneumoniae 120 clinical isolate assessed as MIC of meropenem at 1:8 meropenem:compound ratio by broth microtiter dilution method; format: functional
[15] = tested on: Klebsiella pneumoniae; assay: Antibacterial activity against VIM4 carbapenemase producing multidrug-resistant Klebsiella pneumoniae 120 clinical isolate up to 512 mg/L by broth microtiter dilution method; format: functional, organism-based
[16] = tested on: Pseudomonas aeruginosa; assay: Potentiation of meropenem-induced antibacterial activity against VIM2 carbapenemase producing multidrug-resistant Pseudomonas aeruginosa 12 clinical isolate assessed as MIC of meropenem at 1:8 meropenem:compound ratio by broth microtiter dilution method; format: functional
[17] = tested on: Pseudomonas aeruginosa; assay: Potentiation of meropenem-induced antibacterial activity against VIM2 carbapenemase producing multidrug-resistant Pseudomonas aeruginosa GR62 clinical isolate assessed as MIC of meropenem at 1:8 meropenem:compound ratio by broth microtiter dilution method; format: functional
[18] = tested on: Pseudomonas aeruginosa; assay: Potentiation of meropenem-induced antibacterial activity against VIM2 carbapenemase producing multidrug-resistant Pseudomonas aeruginosa 15 clinical isolate at 1:8 meropenem:compound ratio by checkerboard method; format: functional
[19] = tested on: Pseudomonas aeruginosa; assay: Potentiation of meropenem-induced antibacterial activity against VIM2 carbapenemase producing multidrug-resistant Pseudomonas aeruginosa 3 clinical isolate assessed as MIC of meropenem at 1:8 meropenem:compound ratio by broth microtiter dilution method; format: functional
[20] = tested on: Pseudomonas aeruginosa; assay: Potentiation of meropenem-induced antibacterial activity against VIM2 carbapenemase producing multidrug-resistant Pseudomonas aeruginosa 30 clinical isolate assessed as MIC of meropenem at 1:8 meropenem:compound ratio by broth microtiter dilution method; format: functional
[21] = tested on: Pseudomonas aeruginosa; assay: Antibacterial activity against VIM2 carbapenemase producing multidrug-resistant Pseudomonas aeruginosa 8 clinical isolate up to 512 mg/L by broth microtiter dilution method; format: functional, organism-based
[22] = tested on: Pseudomonas aeruginosa; assay: Antibacterial activity against VIM2 carbapenemase producing multidrug-resistant Pseudomonas aeruginosa 6 clinical isolate up to 512 mg/L by broth microtiter dilution method; format: functional, organism-based
[23] = tested on: Pseudomonas aeruginosa; assay: Potentiation of meropenem-induced antibacterial activity against VIM2 carbapenemase producing multidrug-resistant Pseudomonas aeruginosa 13 clinical isolate assessed as MIC of meropenem at 1:8 meropenem:compound ratio by broth microtiter dilution method; format: functional
[24] = tested on: Pseudomonas aeruginosa; assay: Potentiation of meropenem-induced antibacterial activity against VIM2 carbapenemase producing multidrug-resistant Pseudomonas aeruginosa 6 clinical isolate assessed as MIC of meropenem at 1:8 meropenem:compound ratio by broth microtiter dilution method; format: functional
[25] = tested on: Pseudomonas aeruginosa; assay: Potentiation of meropenem-induced antibacterial activity against VIM2 carbapenemase producing multidrug-resistant Pseudomonas aeruginosa 15 clinical isolate assessed as MIC of meropenem at 1:8 meropenem:compound ratio by broth microtiter dilution method; format: functional
[26] = tested on: Klebsiella pneumoniae; assay: Potentiation of meropenem-induced antibacterial activity against VIM4 carbapenemase producing multidrug-resistant Klebsiella pneumoniae 101 clinical isolate assessed as MIC of meropenem at 1:8 meropenem:compound ratio by broth microtiter dilution method; format: functional
[27] = tested on: Pseudomonas aeruginosa; assay: Antibacterial activity against VIM2 carbapenemase producing multidrug-resistant Pseudomonas aeruginosa 11 clinical isolate up to 512 mg/L by broth microtiter dilution method; format: functional, organism-based
[28] = tested on: Pseudomonas aeruginosa; assay: Potentiation of meropenem-induced antibacterial activity against VIM2 carbapenemase producing multidrug-resistant Pseudomonas aeruginosa 11 clinical isolate at 1:8 meropenem:compound ratio by checkerboard method; format: functional
[29] = tested on: Klebsiella oxytoca; assay: Potentiation of meropenem-induced antibacterial activity against VIM4 carbapenemase producing multidrug-resistant Klebsiella oxytoca 95 clinical isolate at 1:8 meropenem:compound ratio by checkerboard method; format: functional
[30] = tested on: Pseudomonas aeruginosa; assay: Antibacterial activity against VIM2 carbapenemase producing multidrug-resistant Pseudomonas aeruginosa 27 clinical isolate up to 512 mg/L by broth microtiter dilution method; format: functional, organism-based
[31] = tested on: Pseudomonas aeruginosa; assay: Potentiation of meropenem-induced antibacterial activity against VIM2 carbapenemase producing multidrug-resistant Pseudomonas aeruginosa GR64 clinical isolate at 1:8 meropenem:compound ratio by checkerboard method; format: functional
[32] = tested on: Pseudomonas aeruginosa; assay: Antibacterial activity against VIM2 carbapenemase producing multidrug-resistant Pseudomonas aeruginosa 30 clinical isolate up to 512 mg/L by broth microtiter dilution method; format: functional, organism-based
[33] = tested on: Pseudomonas aeruginosa; assay: Antibacterial activity against VIM2 carbapenemase producing multidrug-resistant Pseudomonas aeruginosa 3 clinical isolate up to 512 mg/L by broth microtiter dilution method; format: functional, organism-based
[34] = tested on: Pseudomonas aeruginosa; assay: Potentiation of meropenem-induced antibacterial activity against VIM2 carbapenemase producing multidrug-resistant Pseudomonas aeruginosa GR64 clinical isolate assessed as MIC of meropenem at 1:8 meropenem:compound ratio by broth microtiter dilution method; format: functional
[35] = tested on: Pseudomonas aeruginosa; assay: Antibacterial activity against VIM2 carbapenemase producing multidrug-resistant Pseudomonas aeruginosa 14 clinical isolate up to 512 mg/L by broth microtiter dilution method; format: functional, organism-based

Structure (SMILES): O=C(O)/C(S)=C/c1c(Cl)ccc(Cl)c1Cl
- survival at 4.8 mg/kg [1]: 81%
- MIC [2]: 8 µg/mL
- MIC [3]: 4 µg/mL
- fractional inhibitory concentration index (FICI) [4]: 0.19
- MIC [5]: 16 µg/mL
- Activity [6]: inactive
- MIC [7]: 2 µg/mL
- fractional inhibitory concentration index (FICI) [8]: 0.25
- fractional inhibitory concentration index (FICI) [9]: 0.25
- fractional inhibitory concentration index (FICI) [10]: 0.38
- fractional inhibitory concentration index (FICI) [11]: 0.38
- fractional inhibitory concentration index (FICI) [12]: 0.06
- MIC [13]: 1 µg/mL
- MIC [14]: 2 µg/mL
- Activity [15]: inactive
- MIC [16]: 32 µg/mL
- MIC [17]: 8 µg/mL
- fractional inhibitory concentration index (FICI) [18]: 0.5
- MIC [19]: 8 µg/mL
- MIC [20]: 8 µg/mL
- Activity [21]: inactive
- Activity [22]: inactive
- MIC [23]: 16 µg/mL
- MIC [24]: 16 µg/mL
- MIC [25]: 16 µg/mL
- MIC [26]: 2 µg/mL
- Activity [27]: inactive
- fractional inhibitory concentration index (FICI) [28]: 0.09
- fractional inhibitory concentration index (FICI) [29]: 0.38
- Activity [30]: inactive
- fractional inhibitory concentration index (FICI) [31]: 0.19
- Activity [32]: inactive
- Activity [33]: inactive
- MIC [34]: 4 µg/mL
- Activity [35]: inactive
